Our source for the Efficacy, chromatographic logP and logP values is patent US9375004B2 (Bayer Intellectual Property GmbH, priority 2010, dated 2016).

Where two headings read alike, the source gives them in different places.

The subject of one series is Puccinia triticina. The experiment in a line: Puccinia triticina-test (wheat)/preventive. The format is in vivo. As to conditions: 500 ppm, preventive, evaluated 8 days after inoculation.
In a further series the test system is Botrytis cinerea. The experiment in a line: Botrytis test (beans)/preventive. As to conditions: 100 ppm, preventive, lesion size 2 days after inoculation.
In the next series the test system is Rhizoctonia solani. Description: Rhizoctonia test (rice)/protective. The format is in vivo. As to conditions: 250 ppm, protective, evaluated 4 days after inoculation. On the procedure:
Rhizoctonia Test (Rice)/Protective
Solvent: 28.5 parts by weight of acetone
Emulsifier: 1.5 part by weight of alkylaryl polyglycol ether
1 day after the treatment, the plants are inoculated with hyphae of Rhizoctonia solani.
Evaluation is carried out 4 days after the inoculation.

A further series has as its system Pyricularia oryzae. The format is in vivo.
Series [1] concerns Fusarium nivale (var. majus). The experiment in a line: Fusarium nivale (var. majus)-test (wheat)/preventive. To be noted: preventive, evaluated 5 days after inoculation.
Method: Fusarium Nivale (Var. Majus)-Test (Wheat)/Preventive
Solvent: 49 parts by weight of N,N-dimethylacetamide
(§1) Emulsifier: 1 part by weight of alkylaryl polyglycol ether
After the spray coating has been dried, the plants are slightly injured by using a sandblast and afterwards they are sprayed with a conidia suspension of Fusarium nivale (var. majus).
The plants are placed in the greenhouse under a translucent incubation cabinet at a temperature of approximately 10° C. and a relative atmospheric humidity of approximately 100%.
The test is evaluated 5 days after the inoculation.
The next series concerns Venturia inaequalis. The experiment in a line: Venturia test (apples)/preventive. To be noted: 100 ppm, preventive, evaluated 10 days after inoculation.
The next series deals with Septoria tritici. The experiment in a line: Septoria tritici-test (wheat)/preventive. The series is classed as in vivo. To be noted: 500 ppm, preventive, evaluated 21 days after inoculation.
Another series relates to Cochliobolus miyabeanus. Description: Cochliobolus test (rice)/protective. As to conditions: 250 ppm, protective, evaluated 4 days after inoculation. The format is in vivo.
The next series relates to Uromyces appendiculatus. As to conditions: 100 ppm, beans, preventive, evaluated 10 days after inoculation.
For a further series, the system named is Pyrenophora teres. The experiment in a line: Pyrenophora teres-test (barley)/preventive. The format is in vivo. As to conditions: 500 ppm, preventive, evaluated 8 days after inoculation.
The subject of the next series is Phakopsora pachyrhizi. Description: Phakopsora test (soybeans)/protective. The format is in vivo. To be noted: 250 ppm, protective, evaluated 11 days after inoculation.
In a further series the test system is Sphaerotheca fuliginea. The experiment in a line: Sphaerotheca test (cucumber)/preventive. The series is classed as in vivo. As to conditions: 500 ppm, preventive, evaluated 7 days after inoculation.
A further series concerns Alternaria solani. The experiment in a line: Alternaria test (tomato)/preventive. The format is in vivo. To be noted: 500 ppm, preventive, evaluated 7 days after inoculation.
A short description of series [2]: logP by HPLC on reversed-phase column (EEC Directive 79/831 Annex V.A8). As to conditions: HPLC on reversed-phase column (C 18), EEC Directive 79/831 Annex V.A8.

Method for Botrytis cinerea: Botrytis Test (Beans)/Preventive
(§2) Solvent: 24.5 parts by weight of acetone • 24.5 parts by weight of N,N-dimethylformamide
as §1
After the spray coating has dried on, 2 small pieces of agar covered with growth of Botrytis cinerea are placed on each leaf. The inoculated plants are placed in a darkened chamber at 20° C. and a relative atmospheric humidity of 100%.
2 days after the inoculation, the size of the lesions on the leaves is evaluated.
Method for Venturia inaequalis: Venturia Test (Apples)/Preventive
as §2, §1
After the spray coating has dried on, the plants are inoculated with an aqueous conidia suspension of the causal agent of apple scab (Venturia inaequalis) and then remain for 1 day in an incubation cabinet at approximately 20° C. and a relative atmospheric humidity of 100%.
The plants are then placed in a greenhouse at approximately 21° C. and a relative atmospheric humidity of approximately 90%.
The test is evaluated 10 days after the inoculation.

For `Cn1nc(C(F)F)c(C(=O)Nc2ccccc2CCC(C)(C)C)c1Cl` [Example 14], the Efficacy in the series with Puccinia triticina is 100%; in the series with Botrytis cinerea, 99%; with Rhizoctonia solani it was 100%; in the series on Pyricularia oryzae (250 ppm, rice, protective, evaluated 5 days after inoculation) it was 98%; in [1] (500 ppm) it was 100%; in the series with Venturia inaequalis it was 100%. For the same compound, the Efficacy in the series with Septoria tritici is 93%; with Cochliobolus miyabeanus, 90%; in the series on Uromyces appendiculatus, 100%; in the series on Pyrenophora teres, 100%; in the series on Phakopsora pachyrhizi, 98%. The chromatographic logP – broadly, a lipophilicity value derived from retention on a column – in “physchem” (logP (acidic), HPLC, 0.1% aqueous formic acid/acetonitrile) came to 4.01; in the series “physchem” (logP, HPLC on reversed-phase column (C 18), EEC Directive 79/831 Annex V.A8), 4.1.
In the case of `CC(C)C1C2CCC1c1c(NC(=O)c3c(C(F)F)nn(C)c3F)cccc12` (stereo not shown) [Example 66], the Efficacy in the series on Puccinia triticina came to 100%; in the series with Botrytis cinerea it was 99%; with Rhizoctonia solani, 100%; with Pyricularia oryzae (in vivo) it was 100%; in series [1] (250 ppm) it was 93%; in [1] (500 ppm) it was 86%. The Efficacy in the series with Venturia inaequalis came out at 100%; in the series with Septoria tritici, 100%; in the series on Sphaerotheca fuliginea it was 100%; in the series on Cochliobolus miyabeanus, 93%; with Uromyces appendiculatus it was 100%; with Pyrenophora teres, 100%. The figures for the Efficacy with Phakopsora pachyrhizi and in the series on Alternaria solani were 98% and 100%, respectively. The logP (usually the decadic logarithm of the partition coefficient of the neutral form, usually between octanol and water) in series [2] is 4.41.
